Assay results taken from ChEMBL document CHEMBL1201862, “PubChem BioAssay data set” (2004).
Active and inactive are the calls of the source.

Legend:
[1] = molecular target: Cytochrome P450 3A4 (Homo sapiens, UniProt P08684);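 further: CYP3A4 tested as one member of a cytochrome P450 panel screen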
[2] = molecular target: Cytochrome P450 2C9 (Homo sapiens, UniProt P11712)
[3] = Luminescence Cell-Based Dose Confirmation HTS to Identify Inhibitors of Platelet Dense Granule Release. [Related pubchem assays: 1663 (Primary HTS), 1678 (Summary of Project)]; type: functional
[4] = molecular target: Luciferin 4-monooxygenase (Photinus pyralis, UniProt P08659); test: inhibition of purified Photinus pyralis luciferase – biochemical, luminescence, dose response (AID 1891)
[5] = molecular target: T1, Short transient receptor potential channel 4 (Mus musculus, UniProt Q9QUQ5); test: block of DAMGO-driven TRPC4 calcium entry – cell-based, HEK293 TRPC4/mu-opioid, Fluo-4 calcium, dose response (AID 434942); type: functional;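 further: potency of inhibitors blocking the TRPC4 calcium response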
T1 sequence (Q9QUQ5 whole entry): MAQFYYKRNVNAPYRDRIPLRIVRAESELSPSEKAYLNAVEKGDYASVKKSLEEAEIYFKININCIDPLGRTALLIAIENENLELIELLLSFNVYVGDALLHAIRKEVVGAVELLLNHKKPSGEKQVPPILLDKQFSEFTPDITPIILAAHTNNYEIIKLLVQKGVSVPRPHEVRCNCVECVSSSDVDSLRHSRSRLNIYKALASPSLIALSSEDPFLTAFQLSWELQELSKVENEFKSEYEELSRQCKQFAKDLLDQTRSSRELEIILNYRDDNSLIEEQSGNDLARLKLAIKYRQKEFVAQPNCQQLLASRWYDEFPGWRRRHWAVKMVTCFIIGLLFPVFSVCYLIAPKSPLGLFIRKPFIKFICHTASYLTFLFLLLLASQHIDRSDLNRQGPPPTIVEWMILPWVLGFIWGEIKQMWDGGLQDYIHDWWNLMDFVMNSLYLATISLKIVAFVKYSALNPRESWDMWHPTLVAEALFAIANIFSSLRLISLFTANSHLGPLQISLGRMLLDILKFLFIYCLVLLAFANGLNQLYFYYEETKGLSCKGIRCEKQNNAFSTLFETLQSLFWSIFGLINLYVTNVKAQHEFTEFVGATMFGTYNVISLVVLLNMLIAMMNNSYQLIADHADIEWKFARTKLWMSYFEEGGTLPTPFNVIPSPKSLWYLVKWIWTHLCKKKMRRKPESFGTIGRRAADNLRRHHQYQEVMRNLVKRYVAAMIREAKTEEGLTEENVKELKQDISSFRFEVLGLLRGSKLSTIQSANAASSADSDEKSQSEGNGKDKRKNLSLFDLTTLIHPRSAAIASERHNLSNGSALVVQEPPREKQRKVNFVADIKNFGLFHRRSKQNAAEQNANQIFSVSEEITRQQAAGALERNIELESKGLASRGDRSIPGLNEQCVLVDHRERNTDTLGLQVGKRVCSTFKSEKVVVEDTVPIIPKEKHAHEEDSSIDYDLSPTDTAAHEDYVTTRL

[6] = microbe, parasite or virus in culture; type: functional; conditions: Mycobacterium tuberculosis
[7] = system: H9c2; test: cells; type: functional, cell-based; conditions: Rattus norvegicus, H9c2, Myocardium;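 further: confirmatory concentration-response retest of ultra-high-throughput screening hits for modulation of myocardial damage; cell death induced by hydrogen peroxide oxidative stress; compound pretreatment for 60 min then peroxide exposure for 2 h; potency is for protecting the cells against peroxide damage rather than for killing them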
[8] = fluconazole-exposed Candida albicans growth modulators – fluorescence, retest, confirmation (AID 2467); type: functional, cell-based
[9] = molecular target: Cytochrome P450 2D6 (Homo sapiens, UniProt P10635);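 further: CYP2D6 member of a cytochrome P450 panel assay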
[10] = NIH-3T3 fibroblast cytotoxicity, dose response, cytotoxicity control, cell-based, fluorescence, Alamar Blue, secondary assay (AID 2327); type: functional;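 further: NIH-3T3 mouse fibroblasts cultured with fluconazole at 8 µg/mL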
[11] = Luminescence Cell-Based Dose Retest to Confirm Inhibitors of Cancer Stem Cells. [Related pubchem assays (depositor defined):AID2717, AID2721]; type: functional; conditions: Homo sapiens
[12] = molecular target: T2, Corticotropin-releasing factor receptor 2/Corticotropin-releasing factor-binding protein (Homo sapiens, UniProt P24387+Q13324); test: activators of CRF receptor 2 with binding protein – uHTS hits, confirmation (AID 602473); type: functional; conditions: read-out: EC50_Mean
T2 sequence (Q13324 whole entry): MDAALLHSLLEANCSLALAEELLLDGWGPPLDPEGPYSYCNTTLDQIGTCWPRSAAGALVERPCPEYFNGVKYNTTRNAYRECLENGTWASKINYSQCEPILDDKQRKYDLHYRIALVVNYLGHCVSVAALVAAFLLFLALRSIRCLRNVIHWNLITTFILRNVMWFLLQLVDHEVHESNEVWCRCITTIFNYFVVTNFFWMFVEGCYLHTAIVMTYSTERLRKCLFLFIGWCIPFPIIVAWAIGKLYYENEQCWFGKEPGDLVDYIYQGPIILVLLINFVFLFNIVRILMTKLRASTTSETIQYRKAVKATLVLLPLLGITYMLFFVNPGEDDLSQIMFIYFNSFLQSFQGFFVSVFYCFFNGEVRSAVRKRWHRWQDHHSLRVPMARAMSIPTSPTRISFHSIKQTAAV
T2 sequence (P24387 whole entry): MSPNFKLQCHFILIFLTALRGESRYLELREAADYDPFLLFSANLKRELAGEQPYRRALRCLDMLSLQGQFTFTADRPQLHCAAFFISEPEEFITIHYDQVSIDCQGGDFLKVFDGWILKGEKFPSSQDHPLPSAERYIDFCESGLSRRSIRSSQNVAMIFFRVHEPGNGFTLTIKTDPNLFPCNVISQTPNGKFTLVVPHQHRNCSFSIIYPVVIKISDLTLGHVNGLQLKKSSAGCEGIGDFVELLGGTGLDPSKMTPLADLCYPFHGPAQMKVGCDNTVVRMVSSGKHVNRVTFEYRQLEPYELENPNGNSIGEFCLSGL

[13] = molecular target: T2, Corticotropin-releasing factor receptor 2/Corticotropin-releasing factor-binding protein; test: Dose Response confirmation of uHTS hits for small molecule antagonists of the CRF-binding protein and CRF-R2 receptor complex.; type: functional; conditions: read-out: IC50_Mean
[14] = viability of uninfected HEp-2 cells – cell-based, HTS, cytotoxicity control for RSV inhibitor project, dose response (AID 2410); type: functional; conditions: human respiratory syncytial virus

Sequence of Luciferin 4-monooxygenase (P08659 whole entry): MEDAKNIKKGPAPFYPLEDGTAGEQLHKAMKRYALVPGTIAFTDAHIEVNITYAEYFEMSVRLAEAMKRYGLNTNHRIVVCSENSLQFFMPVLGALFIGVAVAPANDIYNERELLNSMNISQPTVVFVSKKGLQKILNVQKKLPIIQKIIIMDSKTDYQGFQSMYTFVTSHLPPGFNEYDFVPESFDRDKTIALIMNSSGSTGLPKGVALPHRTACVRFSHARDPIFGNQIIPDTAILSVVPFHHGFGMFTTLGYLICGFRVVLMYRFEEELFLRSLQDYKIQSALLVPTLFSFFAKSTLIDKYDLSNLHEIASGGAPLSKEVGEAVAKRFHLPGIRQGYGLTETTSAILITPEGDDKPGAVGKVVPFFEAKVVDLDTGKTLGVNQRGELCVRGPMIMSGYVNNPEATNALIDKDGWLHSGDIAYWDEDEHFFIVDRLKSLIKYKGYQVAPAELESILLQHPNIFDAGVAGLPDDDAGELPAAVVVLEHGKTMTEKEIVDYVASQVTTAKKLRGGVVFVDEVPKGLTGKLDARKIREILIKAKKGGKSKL
Sequence of Cytochrome P450 3A4 (P08684 whole entry): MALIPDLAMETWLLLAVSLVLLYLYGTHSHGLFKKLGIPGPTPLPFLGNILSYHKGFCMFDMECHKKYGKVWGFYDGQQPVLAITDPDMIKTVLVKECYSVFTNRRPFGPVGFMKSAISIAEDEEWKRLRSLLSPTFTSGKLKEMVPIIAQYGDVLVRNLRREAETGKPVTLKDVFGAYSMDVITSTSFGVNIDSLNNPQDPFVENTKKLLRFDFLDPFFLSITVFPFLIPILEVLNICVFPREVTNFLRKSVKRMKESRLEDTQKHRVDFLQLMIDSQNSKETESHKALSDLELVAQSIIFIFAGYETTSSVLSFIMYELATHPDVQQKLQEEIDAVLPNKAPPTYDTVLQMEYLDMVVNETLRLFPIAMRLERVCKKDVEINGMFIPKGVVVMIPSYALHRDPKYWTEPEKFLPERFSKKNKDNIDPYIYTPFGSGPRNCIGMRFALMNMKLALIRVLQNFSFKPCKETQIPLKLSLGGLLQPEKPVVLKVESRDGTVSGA
Sequence of Cytochrome P450 2C9 (P11712 whole entry): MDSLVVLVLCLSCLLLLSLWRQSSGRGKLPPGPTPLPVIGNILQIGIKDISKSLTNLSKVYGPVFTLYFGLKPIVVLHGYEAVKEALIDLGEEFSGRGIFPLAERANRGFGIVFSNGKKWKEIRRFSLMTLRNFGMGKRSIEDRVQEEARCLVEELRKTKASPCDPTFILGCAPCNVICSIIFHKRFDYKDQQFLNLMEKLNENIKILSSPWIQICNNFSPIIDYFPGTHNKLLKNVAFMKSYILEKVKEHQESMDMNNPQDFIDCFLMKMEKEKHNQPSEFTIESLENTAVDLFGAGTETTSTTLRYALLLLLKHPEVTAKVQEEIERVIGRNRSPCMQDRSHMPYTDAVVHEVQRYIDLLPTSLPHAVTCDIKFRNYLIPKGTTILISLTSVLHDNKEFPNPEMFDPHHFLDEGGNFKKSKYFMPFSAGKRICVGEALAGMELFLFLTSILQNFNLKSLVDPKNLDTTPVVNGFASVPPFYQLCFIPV
Sequence of Cytochrome P450 2D6 (P10635 whole entry): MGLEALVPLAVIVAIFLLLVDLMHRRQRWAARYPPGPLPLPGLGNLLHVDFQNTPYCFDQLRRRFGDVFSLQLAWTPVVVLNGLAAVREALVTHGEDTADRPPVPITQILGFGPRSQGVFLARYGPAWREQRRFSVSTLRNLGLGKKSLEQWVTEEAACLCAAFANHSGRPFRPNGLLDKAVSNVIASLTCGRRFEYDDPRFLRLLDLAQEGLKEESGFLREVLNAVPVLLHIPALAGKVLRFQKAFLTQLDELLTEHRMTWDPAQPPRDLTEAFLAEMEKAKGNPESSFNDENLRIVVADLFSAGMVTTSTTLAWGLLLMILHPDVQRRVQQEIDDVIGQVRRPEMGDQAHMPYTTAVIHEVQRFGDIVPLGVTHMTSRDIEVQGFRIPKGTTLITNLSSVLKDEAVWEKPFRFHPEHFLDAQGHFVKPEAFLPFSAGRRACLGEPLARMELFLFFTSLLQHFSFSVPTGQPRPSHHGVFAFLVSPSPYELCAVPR

CCNc1ncc2nc(-c3cccs3)c(=O)n(C)c2n1
AC50 [1]: 12.6 µM (inconclusive)
AC50 [2]: 10 µM (inconclusive)

COc1cccc(Cn2c(=O)c(-c3cn(C)c4ccccc34)nc3cncnc32)c1
AC50 [1]: 10 µM (inconclusive)
AC50 [2]: 0.794 µM (inconclusive)

Cn1c(CN2CCCC2)nc2cc(NC(=O)COc3ccccc3)ccc21
EC50 [3]: > 112 µM (not active)
EC50 [4]: > 112 µM (not active)

CN(C)c1ccc(-c2nc(O)c3ccccc3n2)cc1
EC50 [3]: 33.4 µM (active)
EC50 [4]: 8.02 µM (active)

CCOC(=O)C1CCN(CC(O)COc2ccc(C(C)(C)C)cc2)CC1 (centres undefined)
EC50 [5]: 1.88 µM (active)

CC(C)(C)N1C(=O)NC(=O)/C(=C/Nc2ccc3c(c2)CCC3)C1=O
CC50 [6]: > 40 µM (active)

Cc1cc(Cl)ccc1NNC(=O)CCc1ccccc1
CC50 [6]: > 40 µM (active)

Cn1c2[n+](c3ccc(Cl)cc3c1=O)Cc1ccccc1-2
EC50 [3]: > 112 µM (not active)
EC50 [4]: > 112 µM (not active)

COc1ccc(C(C(=O)NC2CCCC2)N(C(=O)c2snc(C(N)=O)c2N)c2cccc(O)c2)cc1 (centres undefined)
IC50 [7]: > 79 µM (inactive)

CC(=O)Nc1cccc(C(=O)NCC2(N3CCCCC3)CCCCC2)c1
EC50 [5]: 2.66 µM (active)

Cn1cc(CN2CCCCC2CO)c(-c2ccc(Oc3ccccc3)cc2)n1 (centres undefined)
EC50 [5]: 7.5 µM (active)

Cc1cc(/C=C2\SC(Nc3ccc(F)cc3)=NC2=O)c(C)n1-c1ccc(S(N)(=O)=O)cc1
CC50 [6]: 12 µM (active)

COc1ccc(OC)c(NC(=O)CSc2nc(N)c(-c3ccccc3)c(O)n2)c1
EC50 [3]: > 112 µM (not active)
EC50 [4]: > 112 µM (not active)

Cc1ccc(C(=O)c2oc3nc(C)cc(C)c3c2N)cc1
EC50 [8]: > 38 µM (not active)
AC50 [9]: 10 µM (inconclusive)
AC50 [1]: 0.891 µM (inconclusive)
EC50 [10]: > 160 µM (inactive)

CN(CC(=O)Nc1c(Cl)cccc1Cl)C(=O)Cn1[nH]c(=O)c2ccccc2c1=O
IC50 [7]: > 79 µM (inactive)

CCOc1cc2[nH]c(=S)n(CCC(=O)NCc3ccco3)c(=O)c2cc1OCC
EC50 [3]: > 112 µM (not active)
EC50 [4]: > 112 µM (not active)

COc1ccc(NC(=O)c2cc(-c3ccccc3OC)on2)cc1
AC50 [11]: 0.248 µM (active)
EC50 [12]: > 53 µM (inactive)
IC50 [13]: > 47.1 µM (inactive)

C[C@@H]1OC2C3=C(C(=O)[C@H]4O[C@@H]4[C@H]3O)[C@@H]1[C@H]1[C@H](C)OC=C3[C@H](O)[C@H]4O[C@H]4/C(=N\OCc4ccccc4)[C@@]321
AC50 [1]: 3.98 µM (inconclusive)

Cc1c(C2Nc3ccccc3C(=O)N2O)cnn1C (centres undefined)
IC50 [7]: > 79 µM (inactive)

COc1ccccc1C(=O)Nc1ccc2c(c1)CCCN2C(=O)c1cccs1
EC50 [5]: 3.35 µM (active)
CC50 [14]: 21.5 µM (active)

CCOc1cc(/C=C2\C(=O)N(Cc3ccc(C)cc3)C(C)=C2C(=O)OC)ccc1O
AC50 [1]: 1 µM (inconclusive)

CN(C)c1ccc([N+](=O)[O-])cc1C(=O)NCC(c1ccco1)N(C)C (centres undefined)
EC50 [5]: 0.299 µM (active)

CCOc1cc(NC(=O)CCl)c(OCC)cc1NC(C)=O
CC50 [6]: 25.5 µM (active)

COc1ccc(COc2cc(-c3cccc(OC)c3)nc3ccc(NC(=O)c4ccc(OC)cc4)cc23)cc1
IC50 [7]: > 79 µM (inactive)
CC50 [6]: 15.8 µM (active)

Cc1n[nH]c(C)c1CCCCOc1ccccc1F
EC50 [5]: 3.76 µM (active)

CN1CCCCc2c1nc1ccccc1c2N.O=C(O)c1cncc(Br)c1
EC50 [5]: 0.668 µM (active)

Cc1ccc2nc(O)c3cc(C(=O)N(C)c4ccc(C)c(C)c4)sc3c2c1
EC50 [3]: > 112 µM (not active)
EC50 [4]: > 112 µM (not active)

Cc1ccc(SCCNC(=O)c2ccccc2)cc1
AC50 [1]: 12.6 µM (inconclusive)

Cc1cc2ccccc2nc1SCC(=O)N1c2ccccc2CC1C (centres undefined)
EC50 [3]: 11.9 µM (active)
EC50 [4]: > 112 µM (not active)

C=CC[C@@H](CC(=O)N[C@H](CO)Cc1ccccc1)C(=O)N[C@@H](COC(=O)[C@@H](CC=C)CC(=O)OC(C)(C)C)Cc1ccccc1
IC50 [7]: 12.1 µM (active)

NC(=O)c1nsc(C(=O)N(Cc2ccco2)C(C(=O)NCc2ccc(F)cc2)c2ccc(O)cc2)c1N (centres undefined)
EC50 [5]: 0.105 µM (active)

O=C(CCc1nc(O)c2ccccc2n1)N1CCN(S(=O)(=O)c2cc(Cl)ccc2Cl)CC1
IC50 [7]: > 79 µM (inactive)

Cc1ccc(NC(=O)c2[nH]cnc2C(=O)NCCCCCNC(=O)OC(C)(C)C)cc1
IC50 [7]: > 79 µM (inactive)

CCOC(=O)c1[nH]c2cc(OC)c(OC)cc2c1NC(=O)c1nonc1C
AC50 [1]: 2.82 µM (inconclusive)

O=C1N[C@H](Cc2c[nH]c3ccccc23)COC(=O)[C@H](Cc2ccc(F)cc2)C/C=C\C[C@H]1CC(=O)N(CCO)Cc1ccccc1
IC50 [7]: > 79 µM (inactive)

C[C@@H](OC(=O)c1[nH]cnc1C(=O)NCc1ccc(CNC(=O)OC(C)(C)C)cc1)c1ccccc1
IC50 [7]: > 79 µM (inactive)

COc1cc(C(=O)N/N=C/c2sc(N3CCOCC3)nc2-c2ccccc2)cc(OC)c1OC
IC50 [7]: 9.3 µM (active)

Cc1nnc(SCC(=O)N/N=C/c2cn(-c3ccccc3)nc2-c2ccccc2)n1-c1ccccc1
IC50 [7]: > 79 µM (inactive)

Cc1ccc(Oc2ccccc2/C=N/O)cc1
EC50 [5]: 9.44 µM (active)

NC(=O)N/N=C1\c2ccccc2-c2c(C(N)=O)cccc21
EC50 [5]: 1.5 µM (active)

C/C(CC(=O)NCc1ccco1)=N\NC(=O)Cc1ccccc1
AC50 [1]: 17.8 µM (inconclusive)

Cc1c(O)cc2c(c1O)C(=O)CC(c1ccccc1)O2 (centres undefined) [STROBOPININ]
AC50 [11]: 4.97 µM (active)
EC50 [12]: 2.69 µM (active)
